The nature of assay [1]: Inhibition of alpha-glucosidase (unknown origin) assessed as reduction in PNP release using PNPG as substrate preincubated for 10 mins followed by substrate addition measured after 40 mins by spectrophotometric method. Details: species or system Homo sapiens.
The species named for the next assay is Homo sapiens. In words: Potency index, ratio of acarbose IC50 to compound IC50 for alpha-glucosidase (unknown origin).

As usually defined, the IC50 is the point on the concentration scale where inhibition reaches its midpoint. As to `C[C@H]1O[C@H](O[C@H]2[C@H](O)[C@@H](O)[C@@H](O[C@H]3[C@H](O)[C@@H](O)C(O)O[C@@H]3CO)O[C@@H]2CO)[C@H](O)[C@@H](O)[C@@H]1N[C@H]1C=C(CO)[C@@H](O)[C@H](O)[C@H]1O` (stereo partly drawn) [ACARBOSE], the IC50 in assay [1] amounted to 663 µM. In the case of `CC(=O)O[C@H]1C=C(CO)C(=O)[C@H](O)[C@H]1O`, the IC50 in assay [1] was 9.07 µM. The Ratio IC50 in the assay filed under Homo sapiens is 70.

Source of the values: ChEMBL document CHEMBL3853345, “Gabosines P and Q, new carbasugars from Streptomyces sp. and their α-glucosidase inhibitory activity” (Bioorg Med Chem Lett, 2016).
